Reference: US20240108641A1, “COMPOSITIONS FOR ORAL ADMINISTRATION OF ZOLEDRONIC ACID OR RELATED COMPOUNDS FOR TREATING DISEASE” (ANTECIP BIOVENTURES II LLC, priority 2012, published 2024)

What was measured:
[1] = system: inflammatory pain (mechanical hyperalgesia); type: in vivo, Sprague-Dawley rats
Protocol: The effect of orally administered zoledronic acid on inflammatory pain was examined using the rat complete Freund's adjuvant (CFA) model. Inflammatory pain was induced by injection of 100% CFA in a 75 μL volume into the left hind paws of Sprague-Dawley® rats on day 0, followed by assessments on days 1-3. Animals were orally administered vehicle (control), zoledronic acid 18 mg/m^2 (or 3 mg/kg), zoledronic acid 120 mg/m^2 (or 20 mg/kg), or zoledronic acid 900 mg/m^2 (or 150 mg/kg) daily on days 1-3. Drug was dissolved in distilled water and prepared fresh daily. Animals were fasted prior to dosing. Under current FDA guidelines for extrapolating starting dosages from animals to humans, dosages expressed in mg/m^2 are considered equivalent between mammalian species. Thus, for example, 18 mg/m^2 in a rat is considered equivalent to 18 mg/m^2 in a human being, while 3 mg/kg in a rat may not be equivalent to 3 mg/kg in a human being.
Values for inflammatory pain (mechanical hyperalgesia) in the vehicle and drug-treated animals were obtained on day 0 prior to CFA injection, and at baseline and post-treatment on days 1-3. Pain was assessed using a digital Randall-Selitto device (dRS; IITC Life Sciences, Woodland Hills, CA). Animals were placed in a restraint sling that suspended the animal, leaving the hind limbs available for testing. Paw compression threshold was measured by applying increasing pressure to the plantar surface of the hind paw with a dome-shaped tip placed between the 3rd and 4th metatarsus. Pressure was applied gradually over approximately 10 seconds. Measurements were taken from the first observed nocifensive behavior of vocalization, struggle or withdrawal. A cut-off value of 300 g was used to prevent injury to the animal.
Reversal of inflammatory pain was calculated according to the formula:
% reversal=(Post-treatment−Post-CFA baseline)/(Pre-CFA baseline−Post-CFA baseline)×100.
The experiment was carried out using 9-10 animals per group.

[2] = system: complex regional pain syndrome (CRPS); assay: rat tibia fracture model of complex regional pain syndrome, dosing from day of fracture; type: in vivo
Protocol: (§1) The effect of orally administered zoledronic acid was examined in the rat tibia fracture model of complex regional pain syndrome (CRPS). CRPS was induced in the rats by fracturing the right distal tibias of the animals and casting the fractured hindpaws for 4 weeks, as described in Guo T Z et al. (Pain. 2004; 108: 95-107).
Animals were orally administered either vehicle (control) or zoledronic acid, in a dosage of 18 mg/m^2/day (3 mg/kg/day) for 28 days, starting on the day of fracture and casting. Drug was dissolved in distilled water and administered by gavage. Animals were fasted for 4 hours before and 2 hours after dosing. At the end of the 28-day period, casts were removed, and on the following day, the rats were tested for hindpaw pain, edema, and warmth.
Pain was assessed by measuring hyperalgesia, and weight bearing.
To measure hyperalgesia, an up-down von Frey testing paradigm was used. Rats were placed in a clear plastic cylinder (20 cm in diameter) with a wire mesh bottom and allowed to acclimate for 15 minutes. The paw was tested with one of a series of eight von Frey hairs ranging in stiffness from 0.41 g to 15.14 g. The von Frey hair was applied against the hindpaw plantar skin at approximately midsole, taking care to avoid the tori pads. The fiber was pushed until it slightly bowed and then it was jiggled in that position for 6 seconds. Stimuli were presented at an interval of several seconds. Hindpaw withdrawal from the fiber was considered a positive response. […]
An incapacitance device (IITC Inc. Life Science, Woodland, CA, USA) was used to measure hindpaw weight bearing, a postural effect of pain. […] Eight readings (excluding the highest and lowest ones) were averaged to calculate the bilateral hindpaw weight-bearing values. Weight bearing data were analyzed as the ratio between right (fracture) and left hindpaw weight bearing values ((2R/(R+L))×100%). […]
The temperature of the hindpaw was measured using a fine wire thermocouple (Omega, Stanford, CT, USA) applied to the paw skin. […]

[3] = system: complex regional pain syndrome (CRPS); assay: rat tibia fracture model of CRPS, dosing starting four weeks after fracture; type: in vivo
Protocol: A study was performed to evaluate the efficacy of bisphosphonates such as oral zoledronic acid in inhibiting immune responses and pain behavior in a rat fracture model of CRPS.
as §1
Starting four weeks after fracture and casting, animals were orally administered either vehicle (control) or zoledronic acid, a dose of 21 mg/kg on the first day and 3 mg/kg/day daily thereafter, or distilled water for 3 weeks (weeks 4-7 post-fracture). Drug was dissolved in distilled water and administered by gavage. Animals were fasted for 4 hours before and 2 hours after dosing. At the end of the 21-day period, casts were removed, and on the following day, the rats were tested for hindpaw pain, edema, and warmth.

[4] = 18 mg/m^2/day oral for 28 days from fracture
[5] = oral 21 mg/kg first day then 3 mg/kg/day, weeks 4-7 post-fracture

SMILES: O=P(O)(O)C(O)(Cn1ccnc1)P(=O)(O)O [zoledronic acid]
- paw compression thresholds compared to vehicle ([1]; 120 mg/m^2 (20 mg/kg) oral daily, all time points): approximately equal or inferior to vehicle
- toxicity ([1]; 900 mg/m^2 oral daily days 1-3, euthanization of all animals two days after cessation of dosing): significant toxicity
- inflammatory pain thresholds compared to vehicle ([1]; oral administration): significantly improved
- overall effect compared to vehicle treated animals ([2]; 18 mg/m^2/day (3 mg/kg/day) oral for 28 days from fracture): reversed pain, restored weight bearing, and prevented edema
- hindlimb weight bearing [2, 4]: 86 % of normal
- reversal of fracture induced pain (von Frey) as compared to vehicle [2, 4]: 77%
- hindlimb weight bearing [3, 5]: over 90 % of normal
- overall effect compared to vehicle treated animals [3, 5]: reversed pain and restored weight bearing
- von Frey pain thresholds for the right (fracture) hindpaw, change as compared to baseline [3, 5]: over 100%
- pain relief, dosing four weeks after fracture versus dosing at the time of injury ([3]; oral, FIG. 18): significantly greater improvement of pain relief
